In the supplement of paper PMC10307832:

How the values were obtained:
Test in all cases: relative viability (nuclei count vs DMSO), 5 days (fraction); higher = more cells survive
AZD5582 + Alpelisib = compound: C[C@@H](C(=O)N[C@@H](C1CCCCC1)C(=O)N2CCC[C@H]2C(=O)N[C@@H]3[C@@H](CC4=CC=CC=C34)OCC#CC#CCO[C@@H]5CC6=CC=CC=C6[C@@H]5NC(=O)[C@@H]7CCCN7C(=O)[C@H](C8CCCCC8)NC(=O)[C@H](C)NC)NC [AZD5582] + Cc1nc(NC(=O)N2CCC[C@H]2C(N)=O)sc1-c1ccnc(C(C)(C)C(F)(F)F)c1 [Alpelisib] (partner 2 µM)
Procedure, shortened: (§1)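 Lung cancer cell lines in 1536-well plates got either a single drug or a fixed anchor-drug dose together with five library-drug doses (not always all listed) in √10 steps, by pin tool, on the day after seeding. Nuclei were counted after 5 days, and relative viability is the treated-to-vehicle ratio of nuclei counts. Values are medians of duplicate plates.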

AZD5582 + Olaparib = compound: C[C@@H](C(=O)N[C@@H](C1CCCCC1)C(=O)N2CCC[C@H]2C(=O)N[C@@H]3[C@@H](CC4=CC=CC=C34)OCC#CC#CCO[C@@H]5CC6=CC=CC=C6[C@@H]5NC(=O)[C@@H]7CCCN7C(=O)[C@H](C8CCCCC8)NC(=O)[C@H](C)NC)NC [AZD5582] + O=C(c1cc(Cc2n[nH]c(=O)c3ccccc23)ccc1F)N1CCN(C(=O)C2CC2)CC1 [Olaparib] (partner 8 µM)
Procedure, shortened: as §1

[1] = compound: Cn1nnc2c(C(N)=O)ncn2c1=O [Temozolomide] + CC(C)C[C@H](NC(=O)[C@H](Cc1ccccc1)NC(=O)c1cnccn1)B(O)O [Bortezomib] (partner 0.002 µM)
Procedure, shortened: as §1

[2] = compound: Cn1nnc2c(C(N)=O)ncn2c1=O [Temozolomide] + C[C@]1(O)C[C@@H](c2nc(-c3ccc4ccc(-c5ccccc5)nc4c3)c3c(N)nccn32)C1 [Linsitinib] (partner 1 µM)
Procedure, shortened: as §1

Row | Cell Line | relative viability (AZD5582 + Alpelisib; first compound 0.001581 µM) | relative viability (AZD5582 + Alpelisib; first compound 0.005 µM) | relative viability (AZD5582 + Alpelisib; first compound 0.01581 µM) | relative viability (AZD5582 + Alpelisib; first compound 0.05 µM) | relative viability (AZD5582 + Olaparib; first compound 0.001581 µM) | relative viability (AZD5582 + Olaparib; first compound 0.005 µM) | relative viability (AZD5582 + Olaparib; first compound 0.01581 µM) | relative viability (AZD5582 + Olaparib; first compound 0.05 µM) | relative viability ([1]; first compound 0.2 µM) | relative viability ([1]; first compound 0.6325 µM) | relative viability ([1]; first compound 2 µM) | relative viability ([1]; first compound 6.325 µM) | relative viability ([1]; first compound 20 µM) | relative viability ([2]; first compound 0.2 µM) | relative viability ([2]; first compound 0.6325 µM) | relative viability ([2]; first compound 2 µM) | relative viability ([2]; first compound 6.325 µM) | relative viability ([2]; first compound 20 µM)
1 | LXF-289 | 1 | 1.04 | 0.988 | 1.07 | 0.98 | 0.995 | 0.953 | 1.02 | 1.01 | 1.03 | 1.05 | 0.928 | 0.934 | 0.933 | 0.939 | 0.954 | 0.938 | 0.876
2 | NCI-H23 | 0.446 | 0.456 | 0.7 | 0.419 | 0.272 | 0.203 | 0.3 | 0.236 | 1.46 | 1.19 | 0.993 | 0.968 | 0.993 | 0.596 | 0.541 | 0.698 | 0.668 | 0.5
3 | NCI-H322M | 0.796 | 1.03 | 0.515 | 0.889 | 0.745 | 0.865 | 0.692 | 0.882 | – | 1.25 | 1.19 | 1.2 | 0.962 | – | 1.02 | 1.02 | 0.959 | 0.665
4 | NCI-H441 | 0.511 | 0.709 | 0.594 | 0.615 | 0.504 | 0.541 | 0.603 | 0.395 | 0.88 | 0.336 | 0.722 | 0.363 | 0.44 | 0.651 | 0.601 | 0.548 | 0.451 | 0.529
5 | NCI-H460 | 0.401 | 0.445 | 0.536 | 0.621 | 0.36 | 0.411 | 0.345 | 0.413 | 1.29 | 1.11 | 1.02 | 1.24 | 1.14 | 0.959 | 0.801 | 0.79 | 0.727 | 0.877
6 | NCI-H520 | 0.97 | 0.89 | 0.838 | 1.07 | 0.302 | 0.274 | 0.382 | 0.365 | 0.733 | 0.688 | 0.768 | 0.636 | 0.548 | 1.03 | 0.904 | 0.98 | 0.941 | 1.04
7 | NCI-H596 | 0.554 | 0.33 | 0.538 | 0.304 | 0.566 | – | 0.802 | 0.252 | 1.04 | 1.02 | 0.97 | 0.908 | 1.07 | 1.16 | 1.08 | 1.02 | 1.09 | 1.02
8 | NCI-H647 | 0.957 | 0.943 | 1.19 | 1.11 | 0.492 | 0.587 | 0.6 | 0.589 | 1.21 | 0.902 | 0.836 | 0.792 | 0.283 | 1.27 | 1.2 | 1.15 | 0.776 | 0.295
9 | NCI-H650 | 1.06 | 0.934 | 0.997 | 0.863 | 0.321 | 0.32 | 0.366 | 0.307 | 1.18 | 1.08 | 0.787 | 0.807 | 0.941 | 1.08 | 0.893 | 1.05 | 0.735 | 0.83
10 | NCI-H661 | 0.592 | 0.524 | 0.557 | 0.521 | 0.7 | 0.758 | 0.787 | 0.737 | – | 0.889 | 0.887 | 0.844 | 0.864 | – | 0.54 | 0.641 | 0.442 | 0.525
11 | NCI-H727 | 0.578 | 0.627 | 0.441 | 0.556 | 0.698 | 0.73 | 0.65 | 0.781 | 0.884 | 0.903 | 1.09 | 0.768 | 0.803 | 0.287 | 0.329 | 0.196 | 0.224 | 0.233
12 | NCI-H838 | 0.89 | 0.97 | 0.907 | 1.18 | 0.744 | 0.811 | 0.711 | 0.743 | 0.829 | 0.929 | 1.1 | 0.847 | 0.832 | 1.03 | 1.05 | 1.03 | 1.08 | 1.09
13 | NCI-H1299 | 1.01 | 1.11 | 1.07 | 1.03 | 0.943 | 0.965 | 0.963 | 0.931 | 1.07 | 1.06 | 1.04 | 1.02 | 1.02 | 0.994 | 0.961 | 1.16 | 1 | 1.02
14 | NCI-H1355 | 0.724 | 0.832 | 0.82 | 0.852 | 0.68 | 0.728 | 0.658 | 0.774 | 1.34 | 1.2 | 1.2 | 1.09 | 1.14 | 0.713 | 0.859 | 0.796 | 0.883 | 0.794
15 | NCI-H1437 | 0.968 | 0.967 | 0.875 | 1.04 | 0.711 | 0.649 | 0.648 | 0.623 | 0.453 | 0.42 | 0.648 | 0.409 | 0.452 | 1.15 | 1.02 | 1.11 | 1.01 | 1.14
16 | NCI-H1651 | 1.03 | 1.02 | 0.855 | 1.15 | 0.175 | 0.183 | 0.18 | 0.163 | 1.01 | 0.975 | 0.989 | 0.915 | 0.898 | 0.998 | 0.99 | 1.14 | 1.04 | 0.969
17 | NCI-H1666 | 0.851 | 0.833 | 1.08 | 1.03 | 0.766 | 0.745 | 0.674 | 0.77 | 0.779 | 0.9 | 0.595 | 0.647 | 0.416 | 0.69 | 0.713 | 0.616 | 0.688 | 0.482
